# Experimental data: PubChem BioAssay (NCI)
#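 1) Cells in 96-well plates. 2) Compound, 48 h, 5 concentrations. 3) Linear interpolation between surrounding doses. 4) Unreached endpoint = highest concentration. GI50 = concentration required for 50% inhibition of growth. TGI marks complete inhibition of growth.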
# Columns and labels:
# Experiment in all cases: NCI-60 cell line screen, 48 h
# MOLT-4 leukemia = tested on: MOLT-4 leukemia
# OVCAR-8 ovarian = tested on: OVCAR-8 ovarian
# SK-OV-3 ovarian = tested on: SK-OV-3 ovarian
# PC-3 prostate = tested on: PC-3 prostate
# MCF7 breast = tested on: MCF7 breast
# HCT-15 colon = tested on: HCT-15 colon
# OVCAR-3 ovarian = tested on: OVCAR-3 ovarian
# NCI/ADR-RES ovarian = tested on: NCI/ADR-RES ovarian
# SR leukemia = tested on: SR leukemia
# DU-145 prostate = tested on: DU-145 prostate
# 786-0 renal = tested on: 786-0 renal
# SNB-19 CNS = tested on: SNB-19 CNS
# TK-10 renal = tested on: TK-10 renal
# M14 melanoma = tested on: M14 melanoma
# LOX IMVI melanoma = tested on: LOX IMVI melanoma
# NCI-H226 lung = tested on: NCI-H226 lung
# MDA-MB-231 breast = tested on: MDA-MB-231 breast
# A549 NSCLC = tested on: A549 NSCLC
# U251 CNS = tested on: U251 CNS
# A498 renal = tested on: A498 renal
# KM12 colon = tested on: KM12 colon
# SK-MEL-2 melanoma = tested on: SK-MEL-2 melanoma
# CCRF-CEM leukemia = tested on: CCRF-CEM leukemia
# ACHN renal = tested on: ACHN renal
# EKVX NSCLC = tested on: EKVX NSCLC
# T-47D breast = tested on: T-47D breast
# IGROV1 ovarian = tested on: IGROV1 ovarian
# OVCAR-5 ovarian = tested on: OVCAR-5 ovarian
# BT-549 breast = tested on: BT-549 breast
# SF-295 CNS = tested on: SF-295 CNS
# K-562 leukemia = tested on: K-562 leukemia
# NCI-H522 lung = tested on: NCI-H522 lung
# HCC-2998 colon = tested on: HCC-2998 colon
# HCT-116 colon = tested on: HCT-116 colon
# SW-620 colon = tested on: SW-620 colon
# SNB-75 CNS = tested on: SNB-75 CNS
# NCI-H23 lung = tested on: NCI-H23 lung
# SF-268 CNS = tested on: SF-268 CNS
# HOP-62 NSCLC = tested on: HOP-62 NSCLC
# HS 578T breast = tested on: HS 578T breast
# SN12C renal = tested on: SN12C renal
# HT29 colon = tested on: HT29 colon
# HOP-92 NSCLC = tested on: HOP-92 NSCLC
# CAKI-1 renal = tested on: CAKI-1 renal
# OVCAR-4 ovarian = tested on: OVCAR-4 ovarian
# UACC-62 melanoma = tested on: UACC-62 melanoma
# SK-MEL-5 melanoma = tested on: SK-MEL-5 melanoma
# MALME-3M melanoma = tested on: MALME-3M melanoma
# UACC-257 melanoma = tested on: UACC-257 melanoma
# SF-539 CNS = tested on: SF-539 CNS
# COLO 205 colon = tested on: COLO 205 colon
# SK-MEL-28 melanoma = tested on: SK-MEL-28 melanoma
# UO-31 renal = tested on: UO-31 renal
# RPMI-8226 leukemia = tested on: RPMI-8226 leukemia
# NCI-H460 lung = tested on: NCI-H460 lung
# HL-60(TB) leukemia = tested on: HL-60(TB) leukemia
structure (smiles),measurement,setting,value
O=C(N/N=C/c1cccs1)c1[nH]c2ccc(Br)cc2c1-c1ccccc1,GI50,MOLT-4 leukemia,152 nM
same,TGI,MOLT-4 leukemia,> 100000 nM
same,GI50,OVCAR-8 ovarian,44.2 nM
same,GI50,SK-OV-3 ovarian,345 nM
same,TGI,SK-OV-3 ovarian,> 100000 nM
same,GI50,PC-3 prostate,224 nM
same,TGI,PC-3 prostate,> 100000 nM
same,GI50,MCF7 breast,37.4 nM
same,TGI,MCF7 breast,> 35500 nM
same,GI50,HCT-15 colon,41.8 nM
same,TGI,HCT-15 colon,> 57200 nM
same,GI50,OVCAR-3 ovarian,63.7 nM
same,TGI,OVCAR-3 ovarian,> 72900 nM
same,GI50,NCI/ADR-RES ovarian,39.2 nM
same,GI50,SR leukemia,41.2 nM
same,TGI,SR leukemia,> 100000 nM
same,GI50,DU-145 prostate,63 nM
same,TGI,DU-145 prostate,> 100000 nM
same,GI50,786-0 renal,186 nM
same,TGI,786-0 renal,> 100000 nM
same,GI50,SNB-19 CNS,124 nM
same,TGI,SNB-19 CNS,> 100000 nM
same,GI50,TK-10 renal,5740 nM
same,TGI,TK-10 renal,> 100000 nM
same,GI50,M14 melanoma,69.9 nM
same,TGI,M14 melanoma,> 100000 nM
same,GI50,LOX IMVI melanoma,34.7 nM
same,TGI,LOX IMVI melanoma,22800 nM
same,GI50,NCI-H226 lung,240 nM
same,TGI,NCI-H226 lung,> 100000 nM
same,GI50,MDA-MB-231 breast,128 nM
same,TGI,MDA-MB-231 breast,687 nM
same,GI50,A549 NSCLC,125 nM
same,TGI,A549 NSCLC,> 100000 nM
same,GI50,U251 CNS,74.6 nM
same,TGI,U251 CNS,> 100000 nM
same,GI50,A498 renal,> 83800 nM
same,TGI,A498 renal,> 100000 nM
same,GI50,KM12 colon,152 nM
same,TGI,KM12 colon,> 100000 nM
same,GI50,SK-MEL-2 melanoma,150 nM
same,TGI,SK-MEL-2 melanoma,> 100000 nM
same,GI50,CCRF-CEM leukemia,61.9 nM
same,TGI,CCRF-CEM leukemia,> 100000 nM
same,GI50,ACHN renal,103 nM
same,TGI,ACHN renal,> 82900 nM
same,GI50,EKVX NSCLC,2200 nM
same,TGI,EKVX NSCLC,> 100000 nM
same,GI50,T-47D breast,8840 nM
same,TGI,T-47D breast,> 100000 nM
same,GI50,IGROV1 ovarian,81.8 nM
same,TGI,IGROV1 ovarian,> 100000 nM
same,GI50,OVCAR-5 ovarian,109 nM
same,TGI,OVCAR-5 ovarian,> 100000 nM
same,GI50,BT-549 breast,97.6 nM
same,TGI,BT-549 breast,474 nM
same,GI50,SF-295 CNS,39.2 nM
same,TGI,SF-295 CNS,39600 nM
same,GI50,K-562 leukemia,36.7 nM
same,TGI,K-562 leukemia,> 100000 nM
same,GI50,NCI-H522 lung,24.2 nM
same,TGI,NCI-H522 lung,80.9 nM
same,GI50,HCC-2998 colon,142 nM
same,TGI,HCC-2998 colon,43300 nM
same,GI50,HCT-116 colon,34.5 nM
same,TGI,HCT-116 colon,> 100000 nM
same,GI50,SW-620 colon,40.5 nM
same,TGI,SW-620 colon,> 100000 nM
same,GI50,SNB-75 CNS,226 nM
same,TGI,SNB-75 CNS,8490 nM
same,GI50,NCI-H23 lung,88.3 nM
same,TGI,NCI-H23 lung,> 100000 nM
same,GI50,SF-268 CNS,404 nM
same,TGI,SF-268 CNS,> 100000 nM
same,GI50,HOP-62 NSCLC,150 nM
same,TGI,HOP-62 NSCLC,> 93400 nM
same,GI50,HS 578T breast,65.7 nM
same,TGI,HS 578T breast,> 100000 nM
same,GI50,SN12C renal,72.8 nM
same,TGI,SN12C renal,> 51200 nM
same,GI50,HT29 colon,36.8 nM
same,TGI,HT29 colon,1570 nM
same,GI50,HOP-92 NSCLC,1120 nM
same,TGI,HOP-92 NSCLC,> 100000 nM
same,GI50,CAKI-1 renal,153 nM
same,TGI,CAKI-1 renal,> 100000 nM
same,GI50,OVCAR-4 ovarian,340 nM
same,TGI,OVCAR-4 ovarian,> 100000 nM
same,GI50,UACC-62 melanoma,51.6 nM
same,TGI,UACC-62 melanoma,> 100000 nM
same,GI50,SK-MEL-5 melanoma,63.8 nM
same,TGI,SK-MEL-5 melanoma,230 nM
same,GI50,MALME-3M melanoma,179 nM
same,TGI,MALME-3M melanoma,> 100000 nM
same,GI50,UACC-257 melanoma,297 nM
same,TGI,UACC-257 melanoma,> 100000 nM
same,GI50,SF-539 CNS,28.3 nM
same,TGI,SF-539 CNS,115 nM
same,GI50,COLO 205 colon,152 nM
same,TGI,COLO 205 colon,320 nM
same,GI50,SK-MEL-28 melanoma,612 nM
same,TGI,SK-MEL-28 melanoma,> 100000 nM
same,GI50,UO-31 renal,120 nM
same,TGI,UO-31 renal,> 100000 nM
same,GI50,RPMI-8226 leukemia,54.2 nM
same,TGI,RPMI-8226 leukemia,> 76500 nM
same,GI50,NCI-H460 lung,65.7 nM
same,TGI,NCI-H460 lung,3220 nM
same,GI50,HL-60(TB) leukemia,86.8 nM
same,TGI,HL-60(TB) leukemia,358 nM
